Measured values reported in patent US10179928B2, “Methods and tests for screening bacterial biofilms” (Helmholtz-Zentrum fuer Infektionsforschung GmbH, priority 2009, dated 2019).
In brackets after ≈: the same amount, converted by molar mass.

Columns and labels:
[1] = tested on: P. aeruginosa biofilms (PA14 and five clinical CF isolates); assay: Biofilm susceptibility test: 96-well biofilm, BacLight (Syto9/PI) staining, automated CLSM, PHLIP biovolume analysis; format: cell-based, Pseudomonas aeruginosa
Protocol: The evening before the inoculation of the 96-well microtitre plates, inoculate bacteria from a single colony into 2 ml of LB medium in a tube and incubate the preculture in an orbital shaker (180 r.p.m.) at 37° C. overnight (˜16 h). The next morning, prepare a subculture from the overnight culture by diluting it with fresh LB medium to an OD600 of 0.02. The total volume of the inoculated medium depends on the number of replicates and the number of antibiotics or antibiotic dilutions to be tested for this isolate. II. Biofilm Growth Take off the lid of the designated number of sterile half-area μClear microtitre plates and use 100 μl per well of the diluted overnight culture(s) (Step 2) to inoculate the wells (testing different antibiotics, antibiotic dilutions and a minimum of two replicates for each combination). Thereafter, seal the plate(s) with an air-permeable cover foil (no lid) and incubate for 24 h at 37° C. in an incubator with humid atmosphere. III. Antibiotic-Treatment of the Biofilms After 24 h of growth, the biofilms within the wells of the microtitre plate were exposed to antibiotics. Stock solutions of the chosen antibiotics in LB medium were prepared and two-fold serial dilutions in fresh LB-medium were performed. […] To add the antibiotic dilutions to the microtitre plates, the plates were taken out of the incubator into a safety cabinet. The cover foil was removed and 40 μl antibiotic solution to the appropriate well (different antibiotics/concentrations) were added except to the control well(s) where only LB is added. IV. Staining of the Biofilms Prepare staining solution as described above (see REAGENT SETUP). […] Cover the microtitre plate with a fresh air-permeable foil and return the plate to the incubator. Continue incubation for 24 h at 37° C. before imaging. Immediately before microscopy (after ˜48 h total incubation time), remove the microtitre plate with treated biofilms from the incubator. V. Microscopy Automated Run or Manual Run When using the automated confocal Opera system, two positions at the center of each well are chosen automatically to acquire z-stacks of the biofilms. […] Focal planes are acquired starting from the bottom of the plate (position 0) with an interplane distance (z-step size) of 3 μm (using a 40×/0.85 numerical-aperture (NA) air objective). Syto9 is excited with a 488-nm laser and detected with a 540/75 nm band-pass emission filter, whereas PI is excited at 561 nm and detected with a 600/40 nm band-pass emission filter. If a non-automated confocal microscope is used, choose adequate filter settings for Syto9 and PI. To enhance comparability, biofilm images should be recorded at the center of a well. In a manual process, due to time reasons image acquisition might be reduced to one stack per well if 2-3 replicates of the same sample are present within the plate. VI. Data Analysis Computer Calculation Save the image stacks as single .bmp image files (image files may require conversion, for example, with MATLAB software). Batch-process all images using a background subtraction tool (for example, the ‘Subtract Background’ command in ImageJ). Following background subtraction, use an Otsu-thresholding algorithm to obtain thresholded binary images (8-bit format). Reduce the appearance of planktonic bacteria and outlying pixels with a noise filter (such as the ‘Remove Outliers’ command in ImageJ). Steps 11-13 are exemplified in Supplementary FIG. 1. Reassemble the image stacks from the individual processed binary images for each position and channel with Auto PHLIP-ML software. Use the MATLAB-based tool PHLIP (without connected volume filtration) to calculate descriptive parameters of biofilms (including biovolume, substratum coverage, area-to-volume ratio, spatial spreading and 3D colocalization) from the integrated total of each individual slice of a thresholded z-stack.

[2] = tested on: P. aeruginosa PA14 and five clinical CF isolates (planktonic); assay: Planktonic MIC determination with the semi-automated Vitek2 system; settings: for MIC: Pseudomonas aeruginosa, Vitek2
Protocol: Clinical isolates were recovered from the respiratory tracts of chronically infected people with CF at the Hannover Medical School and differed according to morphology and resistance profile. The MICs were determined by the use of the semi-automated Vitek2 system (Biomerieux).

[3] = tested on: P. aeruginosa PA14 and five clinical strains; assay: CFU determinations of whole well content (planktonic and biofilm bacteria); format: cell-based, Pseudomonas aeruginosa
[4] = tested on: mixed bacterial communities from sputum specimens of two cystic fibrosis patients; assay: Multi species biofilm susceptibility test of sputum specimens; format: cell-based; settings: one sputum sample; 1 mg ml−1

MIC ([2]; isolate 5497, planktonic) | MIC ([2]; isolate 5520, planktonic) | MIC ([2]; isolate 5522, planktonic) | MIC ([2]; isolate 5524, planktonic) | MIC ([2]; isolate 5529, planktonic) | MIC ([2]; isolate PA14, planktonic) | MIC interpretation category ([2]; isolate 5497, Vitek2) | MIC interpretation category ([2]; isolate 5520, Vitek2) | MIC interpretation category ([2]; isolate 5522, Vitek2) | MIC interpretation category ([2]; isolate 5524, Vitek2) | MIC interpretation category ([2]; isolate 5529, Vitek2) | MIC interpretation category ([2]; isolate PA14, Vitek2) | Compound | biofilm response ([1]; isolate 5497) | further results
≤ 0.25 mg/L | 0.5 mg/L (≈ 1.3 µM) | 2 mg/L (≈ 5.22 µM) | ≤ 0.25 mg/L | 1 mg/L (≈ 2.61 µM) | ≤ 0.25 mg/L | S | S | S | S | S | S | C[C@@H](O)[C@H]1C(=O)N2C(C(=O)O)=C(S[C@@H]3CN[C@H](C(=O)N(C)C)C3)[C@H](C)[C@H]12 [meropenem] |  | susceptibility under biofilm growth conditions ([1]; all strains): resistance; CFU counts ([3]; strain 5529 at 128 μg ml−1): ~10^6 cells per ml
≤ 0.25 mg/L | 1 mg/L (≈ 2.14 µM) | > 32 mg/L | 1 mg/L (≈ 2.14 µM) | > 32 mg/L | 1 mg/L (≈ 2.14 µM) | S | S | R | S | R | S | NC[C@H]1O[C@H](O[C@H]2[C@H](O)[C@@H](O[C@H]3O[C@H](CO)[C@@H](O)[C@H](N)[C@H]3O)[C@H](N)C[C@@H]2N)[C@H](N)C[C@@H]1O [tobramycin] | ✓ (Biofilms were categorized as responsive (✓) if a consistent increase in the fraction of red and yellow (colocalized) fluorescenct biovolume (reaching ~ 80% of the total biovolume) within a given antibiotic concentration range was detected.) | biofilm response ([1]; isolate 5520): ✓ (Biofilms were categorized as responsive (✓) if a consistent increase in the fraction of red and yellow (colocalized) fluorescenct biovolume (reaching ~ 80% of the total biovolume) within a given antibiotic concentration range was detected.); biofilm response ([1]; isolate PA14): ✓ (Biofilms were categorized as responsive (✓) if a consistent increase in the fraction of red and yellow (colocalized) fluorescenct biovolume (reaching ~ 80% of the total biovolume) within a given antibiotic concentration range was detected.); fraction of the RY biovolume of the total biovolume ([1]; strain 5529 at 512 μg ml−1): ~80%; fraction of the RY (red+yellow) biovolume of the total biovolume ([1]; strains PA14, 5497 and 5520, increasing concentrations, 2-512 μg ml−1): ~80%; change in CFUs ([3]; strains 5522, 5524 and 5529, low antibiotic concentrations): minor decrease; CFU counts ([3]; strains PA14, 5497 and 5520, increasing concentrations): ≤ 10^5 cells per ml

The next lines start with the compound.

Compound | MIC ([2]; isolate 5497, planktonic) | MIC ([2]; isolate 5520, planktonic) | MIC ([2]; isolate 5522, planktonic) | MIC ([2]; isolate 5524, planktonic) | MIC ([2]; isolate 5529, planktonic) | MIC ([2]; isolate PA14, planktonic) | MIC interpretation category ([2]; isolate 5497, Vitek2) | MIC interpretation category ([2]; isolate 5520, Vitek2) | MIC interpretation category ([2]; isolate 5522, Vitek2) | MIC interpretation category ([2]; isolate 5524, Vitek2) | MIC interpretation category ([2]; isolate 5529, Vitek2) | MIC interpretation category ([2]; isolate PA14, Vitek2) | biofilm response ([1]; isolate 5497) | further results
CC(C)(O/N=C(\C(=O)N[C@@H]1C(=O)N2C(C(=O)[O-])=C(C[n+]3ccccc3)CS[C@H]12)c1csc(N)n1)C(=O)O [ceftazidime] | 1 mg/L (≈ 1.83 µM) | 4 mg/L (≈ 7.32 µM) | 4 mg/L (≈ 7.32 µM) | 2 mg/L (≈ 3.66 µM) | ≤ 1 mg/L | ≤ 1 mg/L | S | S | S | S | S | S | ✓ (Biofilms were categorized as responsive (✓) if a consistent increase in the fraction of red and yellow (colocalized) fluorescenct biovolume (reaching ~ 80% of the total biovolume) within a given antibiotic concentration range was detected.) | RY biovolume of the total biovolume ([1]; strain 5497): ~80%; CFU count ([3]; strain 5497): 10^6 cells per ml; CFU count ([3]; strain PA14, without correlated imaging data): 10^6 cells per ml
CC(C)O [isopropanol] |  |  |  |  |  |  |  |  |  |  |  |  |  | fraction of green fluorescence in killed biofilm ([1]; biofilms of three clinical isolates, killing control): 10-20%; killing verified by CFU counts ([3]; biofilms of three clinical isolates): efficiently killed
colistin |  |  |  |  |  |  |  |  |  |  |  |  |  | biofilm responsiveness [4]: responsive
